Measured values published in ChEMBL document CHEMBL1133872, “Modelling studies of the active site of human sorbitol dehydrogenase: an approach to structure-based inhibitor design of the enzyme” (Bioorg Med Chem Lett, 2001).

Target: T1, Sorbitol dehydrogenase (Homo sapiens, UniProt Q00796)
T1 sequence (Q00796 whole entry): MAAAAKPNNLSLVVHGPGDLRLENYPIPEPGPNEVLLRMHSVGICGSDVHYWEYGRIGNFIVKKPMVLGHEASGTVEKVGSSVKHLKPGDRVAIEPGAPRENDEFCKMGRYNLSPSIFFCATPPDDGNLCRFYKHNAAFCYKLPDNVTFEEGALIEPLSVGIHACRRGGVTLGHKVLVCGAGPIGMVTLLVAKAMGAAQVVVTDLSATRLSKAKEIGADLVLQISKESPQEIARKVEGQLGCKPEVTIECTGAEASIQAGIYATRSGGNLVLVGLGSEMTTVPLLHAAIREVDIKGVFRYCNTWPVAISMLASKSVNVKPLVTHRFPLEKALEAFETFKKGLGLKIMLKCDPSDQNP
Assay: Concentration required for inhibitory activity against human sorbitol dehydrogenase (SDH)

IC50: 1000 nM
SMILES: CN(C)S(=O)(=O)N1CCN(c2ccnc(CO)n2)CC1
